From PubChem BioAssay (NCI)
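Where inhibition never reached the appropriate level, the endpoint shown equals the highest concentration tested. Otherwise, values were interpolated linearly from a five-concentration, 48-hour dose response in 96-well plates. GI50 = concentration required for 50% inhibition of growth. TGI marks complete inhibition of growth.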

Columns and labels:
Assay in all cases: NCI-60 cell line screen, 48 h
786-0 renal = tested on: 786-0 renal
A498 renal = tested on: A498 renal
A549 NSCLC = tested on: A549 NSCLC
ACHN renal = tested on: ACHN renal
BT-549 breast = tested on: BT-549 breast
CAKI-1 renal = tested on: CAKI-1 renal
CCRF-CEM leukemia = tested on: CCRF-CEM leukemia
COLO 205 colon = tested on: COLO 205 colon
DU-145 prostate = tested on: DU-145 prostate
EKVX NSCLC = tested on: EKVX NSCLC
HCC-2998 colon = tested on: HCC-2998 colon
HCT-116 colon = tested on: HCT-116 colon
HCT-15 colon = tested on: HCT-15 colon
HL-60(TB) leukemia = tested on: HL-60(TB) leukemia
HOP-62 NSCLC = tested on: HOP-62 NSCLC
HOP-92 NSCLC = tested on: HOP-92 NSCLC
HS 578T breast = tested on: HS 578T breast
HT29 colon = tested on: HT29 colon
IGROV1 ovarian = tested on: IGROV1 ovarian
K-562 leukemia = tested on: K-562 leukemia
KM12 colon = tested on: KM12 colon
LOX IMVI melanoma = tested on: LOX IMVI melanoma
M14 melanoma = tested on: M14 melanoma
MALME-3M melanoma = tested on: MALME-3M melanoma
MCF7 breast = tested on: MCF7 breast
MDA-MB-435 = tested on: MDA-MB-435
MDA-MB-468 breast = tested on: MDA-MB-468 breast
MOLT-4 leukemia = tested on: MOLT-4 leukemia
NCI-H226 lung = tested on: NCI-H226 lung
NCI-H23 lung = tested on: NCI-H23 lung
NCI-H460 lung = tested on: NCI-H460 lung
NCI-H522 lung = tested on: NCI-H522 lung
NCI/ADR-RES ovarian = tested on: NCI/ADR-RES ovarian
OVCAR-3 ovarian = tested on: OVCAR-3 ovarian
OVCAR-4 ovarian = tested on: OVCAR-4 ovarian
OVCAR-5 ovarian = tested on: OVCAR-5 ovarian
OVCAR-8 ovarian = tested on: OVCAR-8 ovarian
PC-3 prostate = tested on: PC-3 prostate
RPMI-8226 leukemia = tested on: RPMI-8226 leukemia
RXF 393 renal = tested on: RXF 393 renal
SF-268 CNS = tested on: SF-268 CNS
SF-295 CNS = tested on: SF-295 CNS
SF-539 CNS = tested on: SF-539 CNS
SK-MEL-28 melanoma = tested on: SK-MEL-28 melanoma
SK-MEL-5 melanoma = tested on: SK-MEL-5 melanoma
SK-OV-3 ovarian = tested on: SK-OV-3 ovarian
SN12C renal = tested on: SN12C renal
SNB-19 CNS = tested on: SNB-19 CNS
SR leukemia = tested on: SR leukemia
SW-620 colon = tested on: SW-620 colon
T-47D breast = tested on: T-47D breast
TK-10 renal = tested on: TK-10 renal
U251 CNS = tested on: U251 CNS
UACC-257 melanoma = tested on: UACC-257 melanoma
UACC-62 melanoma = tested on: UACC-62 melanoma

Q: Which results are given for O=C1Nc2ccc(Cl)cc2/C1=C/c1cccc(OCc2ccccn2)c1?
A: GI50 (786-0 renal): 16.4 µM; TGI (786-0 renal): 31.1 µM; GI50 (A498 renal): 18.2 µM; TGI (A498 renal): 32.7 µM; GI50 (A549 NSCLC): 17.8 µM; TGI (A549 NSCLC): 38.2 µM; GI50 (ACHN renal): 15 µM; TGI (ACHN renal): 30 µM; GI50 (BT-549 breast): 14.1 µM; TGI (BT-549 breast): 27.7 µM; GI50 (CAKI-1 renal): 15.3 µM; TGI (CAKI-1 renal): 32 µM; GI50 (CCRF-CEM leukemia): 30.6 µM; TGI (CCRF-CEM leukemia): > 100 µM; GI50 (COLO 205 colon): 17.5 µM; TGI (COLO 205 colon): 33 µM; GI50 (DU-145 prostate): 17.8 µM; TGI (DU-145 prostate): 31.8 µM; GI50 (EKVX NSCLC): 8.43 µM; TGI (EKVX NSCLC): 21.1 µM; GI50 (HCC-2998 colon): 17.8 µM; TGI (HCC-2998 colon): 31.9 µM; GI50 (HCT-116 colon): 13 µM; TGI (HCT-116 colon): 27.2 µM; GI50 (HCT-15 colon): 13.7 µM; TGI (HCT-15 colon): 30.3 µM; GI50 (HL-60(TB) leukemia): 19.2 µM; TGI (HL-60(TB) leukemia): 52.5 µM; GI50 (HOP-62 NSCLC): 15.8 µM; TGI (HOP-62 NSCLC): 31.3 µM; GI50 (HOP-92 NSCLC): 14.7 µM; TGI (HOP-92 NSCLC): 46.2 µM; GI50 (HS 578T breast): 17.7 µM; TGI (HS 578T breast): 45.7 µM; GI50 (HT29 colon): 17.4 µM; TGI (HT29 colon): 32.8 µM; GI50 (IGROV1 ovarian): 15.7 µM; TGI (IGROV1 ovarian): 31.2 µM; GI50 (K-562 leukemia): 19 µM; TGI (K-562 leukemia): > 100 µM; GI50 (KM12 colon): 18.1 µM; TGI (KM12 colon): 33.8 µM; GI50 (LOX IMVI melanoma): 13.3 µM; TGI (LOX IMVI melanoma): 28.2 µM; GI50 (M14 melanoma): 16.3 µM; TGI (M14 melanoma): 31.2 µM; GI50 (MALME-3M melanoma): 15.4 µM; TGI (MALME-3M melanoma): 29 µM; GI50 (MCF7 breast): 7.15 µM; TGI (MCF7 breast): 20.7 µM; GI50 (MDA-MB-435): 18.4 µM; TGI (MDA-MB-435): 36 µM; GI50 (MDA-MB-468 breast): 11.9 µM; TGI (MDA-MB-468 breast): 25.5 µM; GI50 (MOLT-4 leukemia): 12.4 µM; TGI (MOLT-4 leukemia): 36.8 µM; GI50 (NCI-H226 lung): 16.3 µM; TGI (NCI-H226 lung): 38.5 µM; GI50 (NCI-H23 lung): 14.5 µM; TGI (NCI-H23 lung): 28.1 µM; GI50 (NCI-H460 lung): 18 µM; TGI (NCI-H460 lung): 34.5 µM; GI50 (NCI-H522 lung): 14.6 µM; TGI (NCI-H522 lung): 29.9 µM; GI50 (NCI/ADR-RES ovarian): 14.2 µM; TGI (NCI/ADR-RES ovarian): 34 µM; GI50 (OVCAR-3 ovarian): 16.1 µM; TGI (OVCAR-3 ovarian): 30.1 µM; GI50 (OVCAR-4 ovarian): 18.3 µM; TGI (OVCAR-4 ovarian): 54.1 µM; GI50 (OVCAR-5 ovarian): 15.9 µM; TGI (OVCAR-5 ovarian): 30.4 µM; GI50 (OVCAR-8 ovarian): 15.4 µM; TGI (OVCAR-8 ovarian): 30.3 µM; GI50 (PC-3 prostate): 19.4 µM; TGI (PC-3 prostate): 64.4 µM; GI50 (RPMI-8226 leukemia): 20 µM; TGI (RPMI-8226 leukemia): > 100 µM; GI50 (RXF 393 renal): 11.9 µM; TGI (RXF 393 renal): 24.5 µM; GI50 (SF-268 CNS): 17.6 µM; TGI (SF-268 CNS): 38.9 µM; GI50 (SF-295 CNS): 15.5 µM; TGI (SF-295 CNS): 29.1 µM; GI50 (SF-539 CNS): 16 µM; TGI (SF-539 CNS): 29.5 µM; GI50 (SK-MEL-28 melanoma): 16.8 µM; TGI (SK-MEL-28 melanoma): 30.5 µM; GI50 (SK-MEL-5 melanoma): 17 µM; TGI (SK-MEL-5 melanoma): 30.7 µM; GI50 (SK-OV-3 ovarian): 20.2 µM; TGI (SK-OV-3 ovarian): 47 µM; GI50 (SN12C renal): 15.3 µM; TGI (SN12C renal): 28.9 µM; GI50 (SNB-19 CNS): 15.7 µM; TGI (SNB-19 CNS): 29.3 µM; GI50 (SR leukemia): 13 µM; TGI (SR leukemia): 41.9 µM; GI50 (SW-620 colon): 17.5 µM; TGI (SW-620 colon): 34.3 µM; GI50 (T-47D breast): 13.4 µM; TGI (T-47D breast): 30.6 µM; GI50 (TK-10 renal): 18.7 µM; TGI (TK-10 renal): 33.5 µM; GI50 (U251 CNS): 14.6 µM; TGI (U251 CNS): 28.9 µM; GI50 (UACC-257 melanoma): 15.2 µM; TGI (UACC-257 melanoma): 28.7 µM; GI50 (UACC-62 melanoma): 11.9 µM; TGI (UACC-62 melanoma): 24.4 µM
